Test results taken from ChEMBL document CHEMBL3351456, “Synthesis and antiviral activities of 3-deaza-3-fluoroaristeromycin and its 5' analogues” (Bioorg Med Chem, 2014).

Tests used:
[1] = Inhibition of rabbit erythrocyte SAHase using S-adenosyl-L-homocysteine as substrate assessed as L-homocysteine formation incubated for 5 mins prior to substrate addition measured after 1 hr; design: species or system Oryctolagus cuniculus
[2] = test system: Measles morbillivirus; assay: Antiviral activity against Measles virus infected in human MRC5 cells; type: functional, organism-based
[3] = Cytotoxicity against African green monkey Vero cells; type: cell-based; settings: chlorocebus sabaeus
[4] = test system: Human betaherpesvirus 5; assay: Antiviral activity against human cytomegalovirus infected in HFF cells; type: functional, organism-based; settings: Human betaherpesvirus 5, HFF
[5] = Cytotoxicity against HEK293 cells; type: cell-based; settings: human
[6] = test system: Human papillomavirus; assay: Antiviral activity against Human papillomavirus infected in HEK293 cells; type: functional, organism-based
[7] = Cytotoxicity against African green monkey Vero E6 cells; type: cell-based; settings: chlorocebus sabaeus
[8] = Selectivity index, ratio of CC50 for African green monkey Vero E6 cells to IC50 for Monkeypox virus; type: functional
[9] = Cytotoxicity against HFF cells; type: cell-based; settings: human
[10] = test system: Tacaribe virus; assay: Antiviral activity against Tacaribe virus infected in African green monkey Vero 76 cells; type: functional, organism-based; settings: Mammarenavirus tacaribeense
[11] = Selectivity index, ratio of CC50 for HFF cells to IC50 for Vaccinia virus; type: functional
[12] = Cytotoxicity against human MRC5 cells; type: cell-based
[13] = Selectivity index, ratio of CC50 for human MRC5 cells to IC50 for Measles virus; type: functional
[14] = Cytotoxicity against African green monkey Vero 76 cells; type: cell-based; settings: chlorocebus sabaeus
[15] = test system: Monkeypox virus; assay: Antiviral activity against Monkeypox virus infected in African green monkey Vero E6 cells; type: functional, organism-based
[16] = Selectivity index, ratio of CC50 for HEK293 cells to IC50 for Human papillomavirus; type: functional
[17] = test system: Rift Valley fever virus; assay: Antiviral activity against Rift Valley fever virus infected in African green monkey Vero 76 cells; type: functional, organism-based
[18] = test system: Vaccinia virus; assay: Antiviral activity against Vaccinia virus infected in HFF cells; type: functional, organism-based; settings: Orthopoxvirus vaccinia
[19] = test system: Pichinde virus; assay: Antiviral activity against Pichinde virus infected in African green monkey Vero 76 cells; type: functional, organism-based
[20] = Selectivity index, ratio of CC50 for African green monkey Vero cells to IC50 for Tacaribe virus; type: functional
[21] = Selectivity index, ratio of CC50 for African green monkey Vero 76 cells to IC50 for Rift Valley fever virus; type: functional
[22] = Selectivity index, ratio of CC50 for HFF cells to IC50 for human cytomegalovirus; type: functional
[23] = Selectivity index, ratio of CC50 for African green monkey Vero cells to IC50 for Pichinde virus; type: functional
[24] = test system: Hepatitis B virus; assay: Antiviral activity against HBV; type: functional, organism-based

SMILES	IC50 [1]	IC50 [2]	CC50 [3]	IC50 [4]	CC50 [5]	IC50 [6]	CC50 [7]	Ratio CC50/IC50 [8]	CC50 [9]	IC50 [10]	Ratio CC50/IC50 [11]	CC50 [12]	Ratio CC50/IC50 [13]	CC50 [14]	IC50 [15]	IC50 [17]	IC50 [18]	IC50 [19]	Ratio CC50/IC50 [20]	Ratio CC50/IC50 [21]	further results
Nc1nccc2c1ncn2[C@@H]1C=C(CO)[C@@H](O)[C@H]1O	0.0093 µM	–	–	–	–	–	–	–	–	–	–	–	–	–	–	–	–	–	–	–	–
Nc1ncc(F)c2c1ncn2[C@@H]1C[C@H](O)[C@@H](O)[C@H]1O	0.0058 µM	< 0.32 µM	> 300 µM	> 300 µM	> 100 µM	23.9 µM	> 100 µM	>313	> 300 µM	> 300 µM	>2	> 100 µM	>313	> 300 µM	< 0.32 µM	> 300 µM	142 µM	> 300 µM	–	–	Ratio CC50/IC50 [16]: >4
Nc1ncc(F)c2c1ncn2[C@@H]1C[C@H](CO)[C@@H](O)[C@H]1O	0.029 µM	< 0.32 µM	159 µM	> 60 µM	> 100 µM	> 100 µM	> 100 µM	>313	> 178 µM	14 µM	>6	> 100 µM	>313	> 300 µM	< 0.32 µM	56 µM	48 µM	24 µM	11	>6.3	Ratio CC50/IC50 [22]: <3; Ratio CC50/IC50 [23]: 7
Nc1ncc(F)c2c1ncn2[C@@H]1C[C@H](CCO)[C@@H](O)[C@H]1O	0.009 µM	< 0.32 µM	128 µM	1.49 µM	> 100 µM	> 100 µM	> 100 µM	>313	> 264 µM	6.4 µM	>5	> 100 µM	>313	> 300 µM	< 0.32 µM	34 µM	55.2 µM	30 µM	20	>10	Ratio CC50/IC50 [22]: 177; Ratio CC50/IC50 [23]: 5.7
Nc1ncc(F)c2c1ncn2[C@@H]1O[C@H](CO)[C@@H](O)[C@H]1O	–	–	–	–	–	–	–	–	–	–	–	–	–	–	–	–	–	–	–	–	EC50 [24]: 9.2 µM
